Test results as given in article PMC2119205 (The Journal of Experimental Medicine, 1992).

What was measured:
[1] = system: antigen presentation by LNC to T cell hybridoma 1C5.1; test: Chloroquine treatment of irradiated LNC before T hybridoma activation; format: cell-based; conditions: C3H mice primed with 14 nmol/mouse HEL in CFA, 10^6 LNC/well; chloroquine 1-100 µM, hybridoma 1C5.1 (Fig. 3)
[2] = system: I-Ak molecules; conditions: cited from earlier work
[3] = system: I-Ek molecules; conditions: cited from earlier work
[4] = system: I-Ed molecules; conditions: cited from earlier work
[5] = system: T cell response; conditions: cited from earlier work
[6] = system: T cell hybridoma 1C5.1 (I-Ak/HEL 46-61); format: cell-based, mouse; conditions: read-out: Responsiveness: amount of HEL or peptide inducing 50% of the maximal response; hybridoma 1C5.1, restriction Ak; LK-35.2 cells as APC; mean of three to four experiments
[7] = system: T cell hybridoma 3A9 (I-Ak/HEL 46-61); format: cell-based, mouse; conditions: read-out: Responsiveness: amount of HEL or peptide inducing 50% of the maximal response; hybridoma 3A9, restriction Ak; LK-35.2 cells as APC; mean of three to four experiments
[8] = system: T cell hybridoma 2D4.1 (I-Ak/HEL 112-129); format: cell-based, mouse; conditions: read-out: Responsiveness: amount of HEL or peptide inducing 50% of the maximal response; hybridoma 2D4.1, restriction Ak; LK-35.2 cells as APC; mean of three to four experiments
[9] = system: T cell hybridoma 1H11.3 (I-Ed/HEL 108-116); format: cell-based, mouse; conditions: read-out: Responsiveness: amount of HEL or peptide inducing 50% of the maximal response; hybridoma 1H11.3, restriction Ed; LK-35.2 cells as APC; mean of three to four experiments
[10] = system: T cell hybridoma 2G7.1 (I-Ek/HEL 1-18); format: cell-based, mouse; conditions: read-out: Responsiveness: amount of HEL or peptide inducing 50% of the maximal response; hybridoma 2G7.1, restriction Ek; LK-35.2 cells as APC; mean of three to four experiments
[11] = system: T cell hybridoma 1C5.1 (I-Ak/HEL 46-61); format: in vivo, C3H mice; conditions: LNC from HEL-primed mice (not shown)
[12] = system: T cell hybridoma 3A9 (I-Ak/HEL 46-61); format: in vivo, C3H and DBA/2 mice; conditions: C3H (H-2k) mice, 7 nmol/mouse HEL-CFA, LNC day 8, no antigen added (Fig. 1)
[13] = system: T cell hybridoma 1H11.3 (I-Ed/HEL 108-116); format: in vivo, C3H and DBA/2 mice; conditions: DBA/2 (H-2d) mice, 7 nmol/mouse HEL-CFA, LNC day 8, no antigen added (Fig. 1)

CCN(CC)CCCC(C)Nc1ccnc2cc(Cl)ccc12 (centres unmarked) [chloroquine]
Effect on antigen presentation by LNC from HEL-primed mice [1]: failsto interfere

CNDGRTPGSRNLCN [HEL 64-77]
Binding to I-Ak [2]: does not bind

DRGDQSTDYGIFQINSR [ML 46-62]
Binding to I-Ak molecules [2]: binds strongly | Binding to I-Ek molecules [3]: failsto bind | Binding to I-Ed molecules [4]: failsto bind | Immunogenicity in mice [5]: nonimmunogenic

hen egg white lysozyme [HEL]
EC50 [6]: 300 nM | EC50 [7]: 20 nM | EC50 [8]: 300 nM | EC50 [9]: 500 nM | EC50 [10]: 300 nM | Time after immunization of maximal antigen-presenting activity in LNC [11]: 8 days | IL-2 production by 3A9 induced by LNC from primed mice [12]: induce | IL-2 production by 1H11.3 induced by LNC from primed mice [13]: induce
